Test: Polymorphic stability on storage
Type: physicochemical
Details: kept at 40° C.±2° C. and relative humidity 75%±5% for 6 months; samples prepared in examples 1 to 5

For `O=C(CCCCCCC(=O)Nc1ccccc1)NO` [crystalline vorinostat form I, N-hydroxy-N′-phenyl-octanediamide], the “polymorphic stability (conversion over time to other polymorphs)” value was “no conversion over time to other polymorphs”.

From patent US20110269838A1, “NOVEL PROCESSES AND PURE POLYMORPHS” (priority 2008, published 2011)
